Source: patent US4472582A, “3,5-Disubstituted-4'-(9-acridinylamino)-methane-sulfon-m-anisidide compounds having antitumor properties” (Development Finance Corporation of New Zealand, priority 1979, dated 1984)

Legend:
[1] = system: L1210 leukemia; details: in words, literature; cited from earlier work
[2] = system: poly. dGC; assay: Drug-DNA binding, poly.dGC (GC)
Text: (§1) CT, AT and GC=are relative, inverse measures of compound--DNA binding for calf thymus DNA (CT); poly.dAT (AT) and poly. dGC (GC). (B. C. Baguley and E. M. Falkenhaugh, Nucleic Acids Res., 5, 161-171 (1978), B. F. Cain, B. C. Baguley and W. A. Denny, J. Med. Chem., 21, 658-668 (1978)).

[3] = system: TA1537 strain of Salmonella typhimurium; assay: Mutagenicity assay in TA1537 strain; details: for Mutagenicity D50: Salmonella typhimurium TA1537; for Mutagenicity M50 (percentage mutation frequency at the D50 (×10^4)): Salmonella typhimurium TA1537, at the D50
Text: The quantitative measures of mutagenicity employed in the present studies are those detailed in L. R. Ferguson and W. A. Denny, J. Med. Chem., 22, 251-255 (1979) of early QSAR developed in this area.
D50 and M50=quantitative measures derived from mutagenicity assays in TA1537 strain of Salmonella typhimurium, defined in L. R. Ferguson and W. A. Denny, J. Med. Chem., 22, 251-255 (1979). (The values of M50 are percentage mutation frequencies at the D50 (×10^4).)

[4] = system: poly.dAT; assay: Drug-DNA binding, poly.dAT (AT)
Text: as §1

[5] = system: calf thymus DNA; assay: Drug-DNA binding, calf thymus DNA (CT)
Text: as §1

[6] = system: Ames bacterial tester strains TA98, TA100, TA1537; type: cell-based
Text: As clinical cancer chemotherapy improves, and patients live symptom free for longer intervals, it is obviously important that the agents employed are not carcinogenic and capable of disease re-induction.

[7] = Lipophilic-hydrophilic balance by reversed phase chromatography; type: physicochemical; details: linearly related to 1-octanol/H2O partition coefficients
Text: Rm =a measure of the compound's lipophilichydrophilic balance from reversed phase chromatography. Rm is linearly related to partition coefficients obtained in the 1-octanol/H2 O system.

[8] = system: L1210 leukemia (ic); assay: Intracerebrally implanted L1210; type: in vivo, mice; details: in words
Text: (§2) In initial screening a standard drug administration schedule has been employed (ip, qd 1-5) and mice (C3 H/DBA2 F1 hybrids) bred in the laboratory, receive a standard tumor inoculum of 10^5 L1210 cells ip on day 0. After range finding experiments, an LD10 dose has then been derived employing doses separated by 0.05 log.dose units, an acceptable soluble drug formulation (B. F. Cain, R. N. Seelye and G. J. Atwell, J. Med. Chem., 17, 922-930 (1974)) and groups of six tumored mice at each dose level. Deaths occuring before day 8 have been taken as resulting from drug toxicity. From the linear regression relating percent probit-mortality and the logarithms of the corresponding doses, an LD10 value has been derived. Profiles of antileukemic activity have been obtained employing doses separated by 0.09 log.dose intervals. Significant percentage increases in life span of leukemic animals, obtained at and below the LD10 dose, have been linearly correlated with the logarithms of the corresponding doses. The increase in life span (ILS) specified by the life extension-log.dose regression line at the measured LD10 provides a representative measure of antileukemic effectiveness at a standard host load in toxicity (W. A. Denny and B. F. Cain, J. Med. Chem., 21, 430-437 (1978)). For congener selection ILS has been employed as a measure of factor (1) above and LD10 for factor (2). Desirable drug pharmacokinetic properties (factor (3)) have been screened for by employing standard ip drug administration and implanting tumor more remotely; either subcutaneously (sc) or intracerabrally (ic) (B. F. Cain and G. J. Atwell Europ J. Cancer, 10, 539 549 (1974), B. F. Cain and G. J. Atwell, J. Med. Chem., 19 1409-1416 (1976)).

[9] = system: L1210 leukemia (sc); assay: Antileukemic screen, L1210 tumour sc, drug ip qd 1-5; type: in vivo, mice (C3H/DBA2 F1 hybrids); design: LD10 / D40 (drug dose necessary to provide 40% ILS): unit not given here; details: for ILS (increase in life span at the LD10): Strain F1, Schedule qd 1-5, at LD10, Table II; for LD10: Strain F1, Schedule qd 1-5, drug ip, Table II; for D40 (drug dose necessary to provide 40% ILS): Strain F1, Schedule qd 1-5, Table II
Text: as §2
(§3) ILS and LD10=as defined above.
(§4) D40=the drug dose necessary to provide 40% ILS in standard L1210 assays.

[10] = Water solubility / ease of formulation; type: physicochemical; details: in words
[11] = Basic pKa measured spectrophotometrically; type: physicochemical; details: 20% aqueous dimethylformamide, spectrophotometric; read-out: pK (basic pKa)
[12] = system: L1210 leukemia (ip); assay: Antileukemic screen, L1210 tumour ip, drug ip qd 1-5; type: in vivo, mice (C3H/DBA2 F1 hybrids); design: LD10 / D40 (drug dose necessary to provide 40% ILS): unit not given here; details: for ILS Observed: L1210-ip, qd 1-5, Table III; for ILS (increase in life span at the LD10) / LD10 / D40 (drug dose necessary to provide 40% ILS): Tumour L1210-ip, Table II; for ILS (increase in life span at the LD10): Strain F1, Schedule qd 1-5, at LD10; for LD10: Strain F1, Schedule qd 1-5, drug ip; for D40 (drug dose necessary to provide 40% ILS): Strain F1, Schedule qd 1-5; for Antitumour activity in leukemic animals / Dose potency: in words
Text: as §2, §3, §4

[13] = system: experimental tumour systems; details: in words, literature; cited from earlier work

Question: Which “Antitumour activity in L1210 leukemia” value [1] does the source give for `CS(=O)(=O)Nc1ccc(Nc2c3ccccc3nc3ccccc23)cc1` [AMSA, 4'-(9-acridinylamino) methanesulfonanilide] here?
Answer: The value was “high antitumour activity”.

Question: Which “GC (relative, inverse measure of compound-DNA binding)” value [2] does the source give for `CNC(=O)c1cccc2c(Nc3ccc(NS(C)(=O)=O)cc3OC)c3ccc(C)cc3nc12` [Compound 1] here?
Answer: Its value is 2.76.

Question: And the “Mutagenicity D50” value [3]?
Answer: Its value is 15.3.

Question: What about the “Mutagenicity M50 (percentage mutation frequency at the D50 (×10^4))” value [3] of the same molecule?
Answer: The value was 1.0 % (×10^4).

Question: What about the “AT (relative, inverse measure of compound-DNA binding)” value [4] of the same molecule?
Answer: Its value is 4.74.

Question: What about the “CT (relative, inverse measure of compound-DNA binding)” value [5] of the same molecule?
Answer: Its value is 5.53.

Question: And the Direct mutagenicity [6]?
Answer: Its Direct mutagenicity is “lack significant mutagenic activity”.

Question: And the Rm (reversed-phase chromatographic lipophilicity) [7]?
Answer: Its Rm (reversed-phase chromatographic lipophilicity) is 0.32.

Question: What about the “Inhibition of intra-cerebrally implanted L1210” value [8] of the same molecule?
Answer: Its value is “inhibit intra-cerebrally implanted L1210”.

Question: What about the “ILS (increase in life span at the LD10)” value [9] of the same molecule?
Answer: Its value is 30%.

Question: What about the LD10 [9] of the same molecule?
Answer: Its LD10 is 10.

Question: And the Ease of formulation [10]?
Answer: The Ease of formulation was “easily formulable”.

Question: What about the pKa [11] of the same molecule?
Answer: Its pKa is 6.6.

Question: What about the “ILS Observed” value [12] of the same molecule?
Answer: The value was 200%.

Question: And the “ILS (increase in life span at the LD10)” value [12]?
Answer: Its value is 200%.

Question: What about the LD10 [12] of the same molecule?
Answer: Its LD10 is 12.

Question: What about the “D40 (drug dose necessary to provide 40% ILS)” value [12] of the same molecule?
Answer: The value was 3.

Question: And the “Antitumour activity in leukemic animals” value [12]?
Answer: The value was “unusually high antitumour activity in leukemic animals”.

Question: And the Dose potency [12]?
Answer: Its Dose potency is “good dose potency”.

Question: What about the “Antitumour activity in leukemic animals” value ([12]; listed as 3-methyl-5-methylcarboxamido) of the same molecule?
Answer: Its value is “high experimental antitumor activity”.

Question: With `COc1cc(NS(C)(=O)=O)ccc1Nc1c2ccc(C)cc2nc2c(C(=O)NCC(N)=O)cccc12` [Compound 2] as the molecule, how does the “GC (relative, inverse measure of compound-DNA binding)” value [2] read?
Answer: The value was 1.84.

Question: What about the “Mutagenicity D50” value [3] of the same molecule?
Answer: The value was 27.6.

Question: And the “Mutagenicity M50 (percentage mutation frequency at the D50 (×10^4))” value [3]?
Answer: Its value is 0 % (×10^4).

Question: What about the “AT (relative, inverse measure of compound-DNA binding)” value [4] of the same molecule?
Answer: Its value is 6.53.

Question: What about the “CT (relative, inverse measure of compound-DNA binding)” value [5] of the same molecule?
Answer: The value was 6.53.

Question: What about the Rm (reversed-phase chromatographic lipophilicity) [7] of the same molecule?
Answer: The Rm (reversed-phase chromatographic lipophilicity) was -0.32.

Question: And the “D40 (drug dose necessary to provide 40% ILS)” value [9]?
Answer: The value was 60.

Question: And the “ILS (increase in life span at the LD10)” value [9]?
Answer: The value was 50%.

Question: And the LD10 [9]?
Answer: Its LD10 is 120.

Question: What about the pKa [11] of the same molecule?
Answer: Its pKa is 6.58.

Question: What about the “ILS Observed” value [12] of the same molecule?
Answer: Its value is 200%.

Question: And the “ILS (increase in life span at the LD10)” value [12]?
Answer: Its value is 200%.

Question: What about the LD10 [12] of the same molecule?
Answer: The LD10 was 120.

Question: And the “D40 (drug dose necessary to provide 40% ILS)” value [12]?
Answer: The value was 10.

Question: And the “Antitumour activity in leukemic animals” value [12]?
Answer: Its value is “unusually high antitumour activity in leukemic animals”.

Question: What does the source list for `COc1cc(NS(C)(=O)=O)ccc1Nc1c2ccc(Cl)cc2nc2c(C(=O)NCC(N)=O)cccc12` [Compound 3]?
Answer: GC (relative, inverse measure of compound-DNA binding) [2]: 4.91; Mutagenicity D50 [3]: 12.4; Mutagenicity M50 (percentage mutation frequency at the D50 (×10^4)) [3]: 0 % (×10^4); Rm (reversed-phase chromatographic lipophilicity) [7]: -0.23; D40 (drug dose necessary to provide 40% ILS) [9]: 175; ILS (increase in life span at the LD10) [9]: 65%; LD10 [9]: 330; pKa [11]: 5.71; ILS Observed [12]: 120%; ILS (increase in life span at the LD10) [12]: 120%; LD10 [12]: 300; D40 (drug dose necessary to provide 40% ILS) [12]: 25

Question: What does the source list for `CNC(=O)c1ccc2c(Nc3ccc(NS(C)(=O)=O)cc3OC)c3cccc(C)c3nc2c1` [Compound 4]?
Answer: Mutagenicity D50 [3]: 43.8; Mutagenicity M50 (percentage mutation frequency at the D50 (×10^4)) [3]: 0.16 % (×10^4); AT (relative, inverse measure of compound-DNA binding) [4]: 3.2; Direct mutagenicity [6]: lack significant mutagenic activity; Rm (reversed-phase chromatographic lipophilicity) [7]: -0.17; Inhibition of intra-cerebrally implanted L1210 [8]: inhibit intra-cerebrally implanted L1210; D40 (drug dose necessary to provide 40% ILS) [9]: 15; ILS (increase in life span at the LD10) [9]: 100%; LD10 [9]: 25; Ease of formulation [10]: easily formulable; pKa [11]: 6.64; ILS Observed [12]: 150%; ILS (increase in life span at the LD10) [12]: 150%; LD10 [12]: 20; D40 (drug dose necessary to provide 40% ILS) [12]: 1; Dose potency [12]: good dose potency; Antitumour activity in leukemic animals ([12]; listed as 5-methyl-3-methylcarboxamido): high experimental antitumor activity

Question: For `COc1cc(NS(C)(=O)=O)ccc1Nc1c2ccccc2nc2ccccc12` [m-AMSA, 4'-(9-acridinylamino)-methanesulfon-m-anisidide], which “Activity in other experimental tumour systems” value [13] is on record?
Answer: Its value is “has shown promise in a number of other experimental tumour systems”.

Question: And the “Antitumour activity in L1210 leukemia” value [1]?
Answer: The value was “highly effective in treating L1210 leukemia”.

Question: And the “Inhibition of intra-cerebrally implanted L1210” value [8]?
Answer: The value was “does not”.

Question: What about the “D40 (drug dose necessary to provide 40% ILS)” value [9] of the same molecule?
Answer: The value was 8.0.

Question: What about the “ILS (increase in life span at the LD10)” value [9] of the same molecule?
Answer: Its value is 45%.

Question: What about the LD10 [9] of the same molecule?
Answer: The LD10 was 10.

Question: What about the “ILS (increase in life span at the LD10)” value [12] of the same molecule?
Answer: The value was 111%.

Question: What about the LD10 [12] of the same molecule?
Answer: Its LD10 is 9.

Question: What about the “D40 (drug dose necessary to provide 40% ILS)” value [12] of the same molecule?
Answer: Its value is 2.5.
